Assay results: PubChem BioAssay AID330 (DTP/NCI, 2004)
“And” between values parts separate entries of the source, which are not always exact repeats. Identical values can stand only once. Toxic doses and inconclusive results are not listed.

Tested on: P388 leukemia ip, CD2F1 mice, survival T/C
Experiment: NCI In Vivo Anticancer Drug Screen. Data for tumor model P388 Leukemia (intraperitoneal) in CD2F1 (CDF1) mice
Conditions: endpoint: median survival time, higher = longer survival
Outline: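 Mice carrying the transplanted tumor received test compound or vehicle. Survival was recorded in each group, and the value is the treated-group measurement divided by that of the vehicle-treated control group.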

[1] = dose: 100.0 mg/kg/injection, schedule: Q01DX009 (ip), vehicle: saline
[2] = dose: 50.0 mg/kg/injection, schedule: Q01DX005 (ip), vehicle: saline with Tween-80
[3] = dose: 100.0 mg/kg/injection, schedule: Q01DX005 (ip), vehicle: saline with Tween-80
[4] = dose: 200.0 mg/kg/injection, schedule: Q01DX005 (ip), vehicle: saline with Tween-80
[5] = dose: 60.0 mg/kg/injection, schedule: Q01DX005 (ip), vehicle: saline
[6] = dose: 120.0 mg/kg/injection, schedule: Q01DX005 (ip), vehicle: saline
[7] = dose: 240.0 mg/kg/injection, schedule: Q01DX005 (ip), vehicle: saline
[8] = dose: 60.0 mg/kg/injection, schedule: Q01DX005 (ip), vehicle: saline with Tween-80
[9] = dose: 120.0 mg/kg/injection, schedule: Q01DX005 (ip), vehicle: saline with Tween-80
[10] = dose: 240.0 mg/kg/injection, schedule: Q01DX005 (ip), vehicle: saline with Tween-80

c1ccc(C2(c3ccccc3)CN3CCSC3=N2)cc1
T/C (dose: 12.5 mg/kg/injection, schedule: Q04DX003 (ip), vehicle: saline with Tween-80): 104 % of control
T/C (dose: 25.0 mg/kg/injection, schedule: Q04DX003 (ip), vehicle: saline with Tween-80): 103 % of control
T/C (dose: 50.0 mg/kg/injection, schedule: Q04DX003 (ip), vehicle: saline with Tween-80): 99 % of control
T/C (dose: 100.0 mg/kg/injection, schedule: Q04DX003 (ip), vehicle: saline with Tween-80): 108 % of control
T/C (dose: 200.0 mg/kg/injection, schedule: Q04DX003 (ip), vehicle: saline with Tween-80): 103 % of control

CC(C(=O)O)N(CCC#N)CCC#N (stereo not drawn)
T/C (dose: 50.0 mg/kg/injection, schedule: Q01DX005 (ip), vehicle: saline): 95 % of control
T/C (dose: 100.0 mg/kg/injection, schedule: Q01DX005 (ip), vehicle: saline): 100 % of control
T/C (dose: 200.0 mg/kg/injection, schedule: Q01DX005 (ip), vehicle: saline): 95 % of control

CC(C)(C)[Si](C)(C)OC(=O)Nc1ccc(N(CCCl)CCCl)cc1
T/C (dose: 0.05 mg/kg/injection, schedule: Q01DX009 (ip), vehicle: saline with Tween-80): 122 % of control
T/C (dose: 0.07 mg/kg/injection, schedule: Q01DX009 (ip), vehicle: saline with Tween-80): 105 % of control
T/C (dose: 0.11 mg/kg/injection, schedule: Q01DX009 (ip), vehicle: saline with Tween-80): 118 % of control
T/C (dose: 0.16 mg/kg/injection, schedule: Q01DX009 (ip), vehicle: saline with Tween-80): 123 % of control
T/C (dose: 5.0 mg/kg/injection, schedule: Q04DX003 (ip), vehicle: distilled water + Tween-80): 153 % of control and 165 % of control
T/C (dose: 10.0 mg/kg/injection, schedule: Q04DX003 (ip), vehicle: distilled water + Tween-80): 158 % of control and 161 % of control and 203 % of control
T/C (dose: 40.0 mg/kg/injection, schedule: Q04DX003 (ip), vehicle: distilled water + Tween-80): 100 % of control
T/C (dose: 1.5 micrograms/kg/injection, schedule: Q01DX009 (ip), vehicle: saline): 95 % of control
T/C (dose: 3.1 micrograms/kg/injection, schedule: Q01DX009 (ip), vehicle: saline): 97 % of control
T/C (dose: 6.2 micrograms/kg/injection, schedule: Q01DX009 (ip), vehicle: saline): 102 % of control
T/C (dose: 12.5 micrograms/kg/injection, schedule: Q01DX009 (ip), vehicle: saline): 104 % of control
T/C (dose: 25.0 micrograms/kg/injection, schedule: Q01DX009 (ip), vehicle: saline): 94 % of control
T/C (dose: 50.0 micrograms/kg/injection, schedule: Q01DX009 (ip), vehicle: saline): 110 % of control

N#C/C(=C/c1ccccc1)c1ccccc1
T/C (dose: 50.0 mg/kg/injection, schedule: Q01DX009 (ip), vehicle: saline with Tween-80): 87 % of control
T/C (dose: 100.0 mg/kg/injection, schedule: Q01DX009 (ip), vehicle: saline with Tween-80): 88 % of control
T/C (dose: 200.0 mg/kg/injection, schedule: Q01DX009 (ip), vehicle: saline with Tween-80): 88 % of control
T/C (dose: 400.0 mg/kg/injection, schedule: Q01DX009 (ip), vehicle: saline with Tween-80): 102 % of control

CCC1(O)C(=O)OCc2c1cc1n(c2=O)Cc2cc3cc4c(cc3nc2-1)OCO4 (stereo not drawn)
T/C (dose: 1.0 mg/kg/injection, schedule: Q01DX005 (ip), vehicle: saline with Tween-80): 177 % of control
T/C (dose: 2.0 mg/kg/injection, schedule: Q01DX005 (ip), vehicle: saline with Tween-80): 86 % of control

COc1ccc2c(c1O)C1=CC=CCC13CCN(C)C3C2 (stereo not drawn)
T/C (dose: 100.0 mg/kg/injection, schedule: Q04DX002 (ip), vehicle: saline with Tween-80): 103 % of control
T/C (dose: 200.0 mg/kg/injection, schedule: Q04DX002 (ip), vehicle: saline with Tween-80): 105 % of control
T/C (dose: 400.0 mg/kg/injection, schedule: Q04DX002 (ip), vehicle: saline with Tween-80): 108 % of control

CN(c1ccc(C2=NCCN2)cc1)S(=O)(=O)c1ccc(Cc2ccc(S(=O)(=O)N(C)c3ccc(C4=NCCN4)cc3)cc2)cc1
T/C (dose: 6.25 mg/kg/injection, schedule: Q01DX005 (ip), vehicle: Klucel (hydroxypropylcellulose) (HPC)): 103 % of control
T/C (dose: 12.5 mg/kg/injection, schedule: Q01DX005 (ip), vehicle: Klucel (hydroxypropylcellulose) (HPC)): 97 % of control

CN1c2c(nc(N)[nH]c2=O)NCC1CCNc1ccc(C(=O)NC(CCC(=O)O)C(=O)O)cc1 (stereo not drawn)
T/C (dose: 25.0 mg/kg/injection, schedule: Q01DX009 (ip), vehicle: Klucel (hydroxypropylcellulose) (HPC)): 115 % of control
T/C (dose: 50.0 mg/kg/injection, schedule: Q01DX009 (ip), vehicle: Klucel (hydroxypropylcellulose) (HPC)): 115 % of control
T/C (dose: 75.0 mg/kg/injection, schedule: Q01DX005 (ip), vehicle: saline): 100 % of control
T/C (dose: 75.0 mg/kg/injection, schedule: Q01DX005 (iv), vehicle: saline): 100 % of control
T/C (dose: 75.0 mg/kg/injection, schedule: Q01DX009 (ip), vehicle: saline): 105 % of control
T/C (dose: 75.0 mg/kg/injection, schedule: Q01DX009 (ip), vehicle: sodium bicarbonate): 112 % of control
T/C (dose: 100.0 mg/kg/injection, schedule: Q01DX009 (ip), vehicle: Klucel (hydroxypropylcellulose) (HPC)): 124 % of control
T/C [1]: 113 % of control
T/C (dose: 150.0 mg/kg/injection, schedule: Q01DX005 (ip), vehicle: saline): 107 % of control
T/C (dose: 150.0 mg/kg/injection, schedule: Q01DX005 (iv), vehicle: saline): 107 % of control
T/C (dose: 150.0 mg/kg/injection, schedule: Q01DX009 (ip), vehicle: saline): 108 % of control
T/C (dose: 150.0 mg/kg/injection, schedule: Q01DX009 (ip), vehicle: sodium bicarbonate): 114 % of control
T/C (dose: 300.0 mg/kg/injection, schedule: Q01DX005 (ip), vehicle: saline): 109 % of control and 123 % of control
T/C (dose: 300.0 mg/kg/injection, schedule: Q01DX005 (iv), vehicle: saline): 108 % of control and 113 % of control
T/C (dose: 300.0 mg/kg/injection, schedule: Q01DX009 (ip), vehicle: saline): 116 % of control
T/C (dose: 300.0 mg/kg/injection, schedule: Q01DX009 (ip), vehicle: sodium bicarbonate): 120 % of control
T/C (dose: 600.0 mg/kg/injection, schedule: Q01DX005 (ip), vehicle: saline): 107 % of control and 118 % of control
T/C (dose: 600.0 mg/kg/injection, schedule: Q01DX005 (iv), vehicle: saline): 104 % of control and 122 % of control
T/C (dose: 600.0 mg/kg/injection, schedule: Q01DX009 (ip), vehicle: saline): 119 % of control
T/C (dose: 600.0 mg/kg/injection, schedule: Q01DX009 (ip), vehicle: sodium bicarbonate): 122 % of control
T/C (dose: 800.0 mg/kg/injection, schedule: Q01DX009 (ip), vehicle: Klucel (hydroxypropylcellulose) (HPC)): 99 % of control

NNC(=O)c1oc2ccccc2c1CN(CCO)CCO
T/C [2]: 102 % of control
T/C [3]: 98 % of control
T/C [4]: 107 % of control

CCNC(=S)N/N=C/c1nccc(-c2ccccc2)c1C
T/C (dose: 25.0 mg/kg/injection, schedule: Q01DX009 (ip), vehicle: saline): 117 % of control and 94 % of control
T/C (dose: 50.0 mg/kg/injection, schedule: Q01DX009 (ip), vehicle: saline): 100 % of control and 103 % of control (2×)
T/C [1]: 99 % of control and 108 % of control
T/C (dose: 200.0 mg/kg/injection, schedule: Q01DX009 (ip), vehicle: saline): 100 % of control

CC(C)(F)C(N)C(=O)O (stereo not drawn)
T/C [5]: 101 % of control
T/C [6]: 103 % of control
T/C [7]: 100 % of control

CC(NC(=O)OC(C)(C)C)C(=O)ON1C(=O)CCC1=O (stereo not drawn)
T/C [2]: 108 % of control
T/C [3]: 114 % of control
T/C [4]: 104 % of control

O=C1C/C(=N\O)CON1c1ccccc1
T/C (dose: 100.0 mg/kg/injection, schedule: Q01DX002 (ip), vehicle: Klucel (hydroxypropylcellulose) (HPC)): 106 % of control
T/C (dose: 200.0 mg/kg/injection, schedule: Q01DX002 (ip), vehicle: Klucel (hydroxypropylcellulose) (HPC)): 98 % of control
T/C (dose: 400.0 mg/kg/injection, schedule: Q01DX002 (ip), vehicle: Klucel (hydroxypropylcellulose) (HPC)): 90 % of control

Cc1nc(C2(O)C(C3COC(C)(C)O3)OC3OC(C)(C)OC32)no1 (stereo not drawn)
T/C [8]: 100 % of control
T/C [9]: 100 % of control
T/C [10]: 100 % of control

CCN(CC)C(=O)c1ccncc1C(=O)c1ccncc1
T/C [5]: 94 % of control
T/C [6]: 100 % of control
T/C [7]: 100 % of control

O=C(O)CSCC(=O)Nc1cc(C(F)(F)F)ccc1Cl
T/C [8]: 95 % of control
T/C [9]: 100 % of control
T/C [10]: 96 % of control
